According to PubChem BioAssay (NCI):
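Protocol summary: plate cells (96-well), add compound at 5 concentrations, incubate 48 h, interpolate endpoints linearly. Here, GI50 denotes the concentration required for 50% inhibition of growth. Definition used: TGI = concentration required for complete inhibition of growth.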

Columns and labels:
Experiment in all cases: DTP human tumour cell line panel, 48 h
[1] = test system: NCI-H460 lung
[2] = test system: OVCAR-8 ovarian
[3] = test system: COLO 205 colon
[4] = test system: OVCAR-5 ovarian
[5] = test system: A549 NSCLC
[6] = test system: K-562 leukemia
[7] = test system: T-47D breast
[8] = test system: OVCAR-3 ovarian
[9] = test system: HOP-92 NSCLC
[10] = test system: UACC-257 melanoma
[11] = test system: MDA-MB-231 breast
[12] = test system: SN12C renal
[13] = test system: NCI-H522 lung
[14] = test system: UACC-62 melanoma
[15] = test system: MALME-3M melanoma
[16] = test system: OVCAR-4 ovarian
[17] = test system: 786-0 renal
[18] = test system: HL-60(TB) leukemia
[19] = test system: MCF7 breast
[20] = test system: SNB-19 CNS
[21] = test system: SNB-75 CNS
[22] = test system: NCI-H23 lung
[23] = test system: SK-OV-3 ovarian
[24] = test system: UO-31 renal
[25] = test system: PC-3 prostate
[26] = test system: HS 578T breast
[27] = test system: SF-295 CNS
[28] = test system: HCT-116 colon
[29] = test system: HCC-2998 colon

CN1CCN(Cc2ccc(NC(=O)c3cncc(C#Cc4cnc5ccc(OC6CCOCC6)nn45)c3)cc2C(F)(F)F)CC1
GI50 [1]: 67.4 nM | TGI [1]: 618 nM | GI50 [2]: 132 nM | TGI [2]: 604 nM | GI50 [3]: 95.3 nM | TGI [3]: 302 nM | GI50 [4]: 257 nM | TGI [4]: 1580 nM | GI50 [5]: 90.9 nM | TGI [5]: 562 nM | GI50 [6]: 5 nM | TGI [6]: 702 nM | GI50 [7]: 543 nM | TGI [7]: 2420 nM | GI50 [8]: 123 nM | TGI [8]: 998 nM | GI50 [9]: 9.44 nM | TGI [9]: 65.7 nM | GI50 [10]: 215 nM | TGI [10]: 780 nM | GI50 [11]: 38 nM | TGI [11]: 176 nM | GI50 [12]: 52.9 nM | TGI [12]: 408 nM | GI50 [13]: 88 nM | TGI [13]: 182 nM | GI50 [14]: 127 nM | TGI [14]: 732 nM | GI50 [15]: 69.4 nM | TGI [15]: 382 nM | GI50 [16]: 151 nM | TGI [16]: 1190 nM | GI50 [17]: 244 nM | TGI [17]: 890 nM | GI50 [18]: 57.5 nM | TGI [18]: 285 nM | GI50 [19]: 37.6 nM | TGI [19]: 415 nM | GI50 [20]: 221 nM | TGI [20]: 1640 nM | GI50 [21]: 17.8 nM | TGI [21]: 209 nM | GI50 [22]: 120 nM | TGI [22]: 474 nM | GI50 [23]: 316 nM | TGI [23]: 1160 nM | GI50 [24]: 158 nM | TGI [24]: 729 nM | GI50 [25]: 144 nM | TGI [25]: 1120 nM | GI50 [26]: 105 nM | TGI [26]: 648 nM | GI50 [27]: 145 nM | TGI [27]: 1560 nM | GI50 [28]: 37.5 nM | TGI [28]: 228 nM | GI50 [29]: 149 nM | TGI [29]: 457 nM
